Measured values from article PMC9396876, “GRK3 is a poor prognosticator and serves as a therapeutic target in advanced gastric adenocarcinoma” (Journal of Experimental & Clinical Cancer Research : CR, 2022).

What was measured:
[1] = molecular target: T1, GRK2 (Homo sapiens, UniProt P25098); assay: in vitro kinase assay (Z-LYTE; ADP-Glo); assay type: biochemical
T1 sequence (P25098 1-689): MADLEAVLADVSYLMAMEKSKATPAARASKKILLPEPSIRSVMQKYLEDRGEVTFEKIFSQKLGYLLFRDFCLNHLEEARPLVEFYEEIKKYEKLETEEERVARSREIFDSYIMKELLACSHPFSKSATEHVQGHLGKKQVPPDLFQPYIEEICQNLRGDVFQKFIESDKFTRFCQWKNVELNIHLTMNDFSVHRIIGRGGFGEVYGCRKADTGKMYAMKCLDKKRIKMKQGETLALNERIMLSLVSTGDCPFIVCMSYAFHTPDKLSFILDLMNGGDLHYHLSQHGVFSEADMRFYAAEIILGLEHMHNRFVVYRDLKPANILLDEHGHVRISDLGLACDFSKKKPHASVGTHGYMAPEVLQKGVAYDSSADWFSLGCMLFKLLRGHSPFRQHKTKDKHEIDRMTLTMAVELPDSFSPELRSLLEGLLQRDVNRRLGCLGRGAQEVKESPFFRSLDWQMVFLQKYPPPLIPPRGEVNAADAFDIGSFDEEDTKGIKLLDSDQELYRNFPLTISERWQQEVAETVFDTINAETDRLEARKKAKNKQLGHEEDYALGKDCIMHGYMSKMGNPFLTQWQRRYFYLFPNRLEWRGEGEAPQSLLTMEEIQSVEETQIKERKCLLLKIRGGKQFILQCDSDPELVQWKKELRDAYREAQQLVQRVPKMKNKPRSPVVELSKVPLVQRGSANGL

[2] = molecular target: T2, GRK3 (G protein-coupled receptor kinase 3) (Homo sapiens, UniProt P35626); assay: in vitro kinase assay (Z-LYTE; ADP-Glo); assay type: biochemical
T2 construct: recombinant GRK3 protein
T2 sequence (P35626 1-688): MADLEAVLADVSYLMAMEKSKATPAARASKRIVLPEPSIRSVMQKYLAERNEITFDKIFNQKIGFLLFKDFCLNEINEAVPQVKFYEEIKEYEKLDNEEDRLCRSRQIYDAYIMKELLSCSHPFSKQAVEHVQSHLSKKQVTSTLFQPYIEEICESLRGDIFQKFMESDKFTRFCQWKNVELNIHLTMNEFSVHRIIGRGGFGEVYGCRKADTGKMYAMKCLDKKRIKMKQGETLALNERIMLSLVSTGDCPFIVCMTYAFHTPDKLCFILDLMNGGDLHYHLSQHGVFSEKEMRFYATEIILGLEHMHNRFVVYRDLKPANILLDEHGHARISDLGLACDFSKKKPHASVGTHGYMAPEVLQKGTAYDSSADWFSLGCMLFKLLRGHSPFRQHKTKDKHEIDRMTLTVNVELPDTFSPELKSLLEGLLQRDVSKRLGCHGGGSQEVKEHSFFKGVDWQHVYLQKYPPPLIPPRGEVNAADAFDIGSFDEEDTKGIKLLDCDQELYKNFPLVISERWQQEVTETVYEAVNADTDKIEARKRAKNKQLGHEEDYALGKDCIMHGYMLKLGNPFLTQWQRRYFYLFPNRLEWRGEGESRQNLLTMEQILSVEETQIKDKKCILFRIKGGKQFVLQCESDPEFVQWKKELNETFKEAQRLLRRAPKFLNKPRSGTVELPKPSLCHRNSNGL

Structure (SMILES): Cn1cc(-c2[nH]c3cc(NC(=O)[C@H](N)C4CCCCC4)cc4c3c2C=NNC4=O)cn1 [LD2]
- IC50 [1]: 1.95 µM
- IC50 [2]: 0.082 µM
